In patent publication US20230235378A1, “LZHEIMER'S DISEASE-SPECIFIC ALTERATIONS OF PROTEIN KINASE C EPSILON (PKC-EPSILON PROTEIN LEVELS” (WEST VIRGINIA UNIVERSITY BOARD OF GOVERNORS ON BEHALF OF …, priority 2010, published 2023):

How the values were obtained:
[1] = tested on: TACE; test: TACE assay in cell homogenates of neuronal cells; assay type: cell-based; details: human SH-SY5Y, N2a mouse neuroblastoma cells, primary neurons from rat hippocampus
Experimental: TACE Assay. TACE was measured by incubating 5 μl cell homogenate, 3 μl buffer (50 mM Tris-HCl 7.4 plus 25 mM NaCl plus 4% glycerol), and 1 μl of 100 μM TACE substrate IV (Aβz-LAQAVRSSSR-DPa) (Calbiochem) for 20 min at 37° in 1.5-ml polypropylene centrifuge tubes (Jin et al., Anal. Biochem. 2002; 302: 269-75). The reaction was stopped by cooling to 4° C. The samples were diluted to 1 ml and the fluorescence was rapidly measured (ex=320 nm, em=420 nm) in a Spex Fluorolog 2 spectrofluorometer.
Buxbaum et al., J. Biol. Chem. 1998; 273: 27765-67; Etcheberrigaray et al., Proc. Natl. Acad. Sci. USA. 2006: 103:8215-20. However, many of these earlier studies were carried out in fibroblasts and other non-neuronal cell types, which appear to respond differently to PKC activators than neurons.

[2] = tested on: PKC; test: Sustained PKC activation in primary neurons; assay type: cell-based, rat; details: sustained activation only observed in primary neurons
Experimental: Cell Culture. Rat hippocampal H19-7/IGF-IR cells (ATCC, Manassas, Va.) were plated onto poly-L-lysine coated plates and grown at 35° C. in DMEM/10% FCS for several days until about 50% coverage was obtained. The cells were then induced to differentiate into a neuronal phenotype by replacing the medium with 5 ml N2 medium containing 10 ng/ml basic fibroblast growth factor at 39° C. and grown in T-75 flasks at 37° C. Human SH-SY5Y neuroblastoma cells (ATCC) were cultured in 45% F 12K/45% MEM/10% FCS. Mouse N2A neuroblastoma cells were cultured in DMEM/10% FCS without glutamine. Rat hippocampal neurons from 18-day-old embryonic
Sprague Dawley rat brains were plated on 12- or 96-well plates coated with poly-D-lysine (Sigma-Aldrich, St. Louis, Mo.) in B-27 neurobasal medium containing 0.5 mM glutamine and 25 μM glutamate (Invitrogen, Carlsbad, Calif.) and cultured for three days in the medium without glutamate. […]
Protein Kinase C Assay. […] 0.5 μCi [γ-32P]ATP was added and 32P-phosphoprotein formation was measured by adsorption onto phosphocellulose as described previously. […] For measurements of activation by BR-101 (DCP-LA) and similar compounds, PKC activity was measured in the absence of diacylglycerol and phosphatidylserine, as described by Kanno et al., and PKC δ, ε, η, and were measured in the absence of added EGTA and CaCl2, as described by Kanno et al., J. Lipid Res. 2006; 47: 1146-50. […]

[3] = target: T1, PKCα (Homo sapiens, UniProt P17252); test: Protein kinase C assay with recombinant PKC alpha isoform ([γ32P]ATP, histones); assay type: biochemical; details: data not shown
T1 construct: purchased Calbiochem (San Diego, Calif.)
Experimental: Protein Kinase C Assay. Recombinant PKC (1 ng of alpha or epsilon isoform) was mixed with the BR-101 (DCP-LA) in the presence of 10 micromolar histones, 5 mM CaCl2, 1.2 μg/μl phosphatidyl-L-serine, 0.18 μg/μl 1,2-dioctanoyl-sn-glycerol (DAG), 10 mM MgCl2, 20 mM HEPES (pH 7.4), 0.8 mM EDTA, 4 mM EGTA, 4% glycerol, 8 μg/ml aprotinin, 8 μg/ml leupeptin, and 2 mM benzamidine. 0.5 micro Ci [γ32P]ATP was added. The incubation mixture was incubated for 15 min at 37 degrees in a total volume of 10 microliters. The reaction was stopped by spotting the reaction mixtures on 1×2 cm strips of cellulose phosphate paper (Whatman P81) and immediately washing twice for 1 hr in 0.5% H3PO4. The cellulose phosphate strips were counted in a scintillation counter. In some experiments, phosphatidylserine, diacylglycerol, and/or calcium were removed.

## CCCCCC1CC1CC1CC1CCCCCCCC(=O)O (stereo not drawn) [BR-101, 8-[2-(2-pentyl-cyclopropylmethyl)-cyclopropyl]-octanoic acid]
[1]
  change in TACE activity: only produced small increases
[2]
  duration of PKC elevation: remained elevated for at least four hours
[3]
  effect on PKCα: not affected
